The text below walks through data of PMC12648101, “Targeting SARS-CoV-2 main protease for the discovery of a broad-spectrum COVID-19 inhibitor by intensive multi-tiered validation” (Acta Pharmaceutica Sinica. B, 2025).

Entries after “also recorded” stand apart in the source; their conditions may differ. Like-named read-outs stand apart in the source and are kept apart here.

The test system of one data set is SARS-CoV-2 Omicron BA.5. The data set can be described thus: microbe, parasite or virus in culture. In kind it is cell-based. To be noted: Severe acute respiratory syndrome coronavirus 2, Vero C1008, 48 h.
The test system of the next data set is SARS-CoV-2 Delta. Kind of data set: microbe, parasite or virus in culture. The format is cell-based. To be noted: Severe acute respiratory syndrome coronavirus 2, Vero C1008, 48 h.
For a further data set, the system named is SARS-CoV-2 Omicron BA.4. The data set can be described thus: microbe, parasite or virus in culture. To be noted: Severe acute respiratory syndrome coronavirus 2, Vero C1008, 48 h. In kind it is cell-based.
Data set [1] is described as follows: Solubility of the dosing preparation at the effective dose. The format is physicochemical. To be noted: 300 mg/kg dose, saline with 5% DMSO. Here is the method:
In vivo, a total of 20 female K18-hACE2 transgenic mice aged 8 weeks were obtained from GemPharmatech (Nanjing, China), which were classified into four groups with five mice in each group: Group 1 served as the untreated, infected control (Virus group); Group 2 received 300 mg/kg of PF-07321332 as the positive control; and Groups 3 and 4 were administered CHLA at doses of 150 and 300 mg/kg, respectively. On Day 0, these K18-hACE2 mice were intranasally inoculated with 1000 FFU of SARS-CoV-2 WT, which was pre-diluted in 50 μL of DMEM. The therapeutic administration was commenced 2 h after infection. The K18-hACE2 transgenic mice were orally administered with either PF-07321332 (300 mg/kg) or CHLA at varying doses (150 and 300 mg/kg), which were dissolved in a saline solution containing 5% DMSO. The mice were euthanized three days post-administration, and the lungs were collected and placed in 1 mL PBS and preserved at −80 °C to evaluate pulmonary virus titers.

The nature of data set [2]: Acute toxicity test in mice. The format is in vivo, C57BL/6 mice. To be noted: 200 and 500 mg/kg, i.g. Here is the method:
Specific-pathogen-free (SPF) C57BL/6 mice were used, balanced for gender, with males and females weighing 18–20 g. The Institutional Committee approved all animal experiment procedures in this study for Animal Care and Biosafety at the Animal Center, Tianjin University of Traditional Chinese Medicine. CHLA was weighed and subsequently dissolved in a 5% DMSO solution, which was then diluted with normal saline (0.9% sodium chloride solution) and mixed to achieve the desired concentration. To evaluate CHLA's acute toxicity, mice were randomly allocated into three groups (n = 10): a control group administered normal saline, and two treatment groups administered CHLA solution at 200 and 500 mg/kg, respectively. We monitored all mice that occurred twice daily over 14 days, focusing on toxicological signs, changes in body weight, and behavioral abnormalities. Upon concluding the study, specimens from blood, heart, liver, spleen, lung, and kidney were harvested for analysis.

The nature of data set [3]: Pharmacokinetic study in rats (LC-MS/MS). The format is in vivo, Sprague–Dawley (SD) rats. To be noted: male, Sprague-Dawley, plasma, rat. How it is done: The PK study was strictly conducted according to the National Medical Products Administration (NMPA) Good Laboratory Practice (GLP) guidelines, which was undertaken at the Animal Center of Tianjin University of Traditional Chinese Medicine. Sprague–Dawley (SD) rats were supplied by Beijing Vital River Laboratory Animal Technology Co., Ltd. (Beijing, China). Male SD rats (n = 5 per group, weights: 180–200 g and age: 6–8 weeks) were administered by CHLA (solubilized in DMSO: 0.9% NaCl = 5:95, v/v) at doses of 10 and 5 mg/kg via intragastric (i.g.) and intravenous (i.v.) routes, respectively. Blood samples were collected at specified intervals post-administration (0.033, 0.083, 0.166, 0.25, 0.5, 1, 4, 6, 8, 12, 24, 36, and 48 h), followed by centrifugation at 4000 rpm (Thermo Scientific Sorvall ST 40R Centrifuge, Osterode, Germany) and 4 °C for 10 min. The supernatant plasma was stored at −20 °C for subsequent analysis.
Analysis was performed on a Shimadzu LC-20AD Prominence Liquid Chromatograph (Shimadzu Corporation, Japan)–AB Sciex API […] mass spectrometer (Applied Biosystems, USA) (LC–MS/MS). Samples were separated on an Agilent Poroshell 120 EC-C18 column (2.7 μm, 3.0 mm × 50 mm) (Agilent, USA). The column temperature was 35 °C, and the mobile phase consisted of water with 0.1% formic acid (v/v, buffer A) and acetonitrile with 0.1% formic acid (v/v, buffer B). The elution was conducted according to a 5-min gradient program (0–0.5 min, 10% buffer B; 0.5–2 min, 10%–90% buffer B; 2–3.5 min, 90% buffer B; 3.5–5 min, 10% buffer B), with the flow rate set at 0.5 mL/min and the injection volume at 10 μL. The mass spectrometry operated in positive MRM mode, targeting the precursor and product ions of CHLA (m/z 953.3 →301.1 and 953.3 →275.1, respectively). Tolbutamide served as the internal standard (IS), with precursor and product ions at 269.1 →170.1. The parameters were analyzed by […] via DAS 3.2.8 software. The regression equation for CHLA, based on the peak area ratio of CHLA to IS against the concentration, was (Eq. (1)):(1) y=0.0000796x+0.000162(r=0.9968) indicating a strong correlation.

Data set [4] relates to SARS-CoV-2 WT. Kind of data set: Antiviral CPE assay in infected Vero E6 cells. In kind it is cell-based. The settings on record: Severe acute respiratory syndrome coronavirus 2, Vero C1008, Vero E6, MOI 0.01, 48 h.
The subject of data set [5] is SARS-CoV-2 Omicron BA.2.3. Kind of data set: microbe, parasite or virus in culture. In kind it is cell-based. The settings on record: Severe acute respiratory syndrome coronavirus 2, Vero C1008, 48 h.
In data set [6] the test system is SARS-CoV-2 Omicron BA.1.1. The data set can be described thus: microbe, parasite or virus in culture. The format is cell-based. To be noted: Severe acute respiratory syndrome coronavirus 2, Vero C1008, 48 h.
Data set [7] in a line: Cell viability assay (CCK-8). The format is cell-based. The settings on record: African green monkey; Vero E6 cells, CCK8, 48 h. Here is the method:
Cell viability was assessed using the Cell Counting Kit-8 assay (CCK-8, MedChemExpress, China). In brief, Vero E6 cells (ATCC, CRL-1586) at a density of 5 × 10^4 cells/well were seeded into 96-well plates for 24 h. Cells were cultured in Dulbecco's modified Eagle's medium (DMEM) (Gibco, USA), supplemented with 10% (v/v) serum, 100 U/mL penicillin, and 100 μg/mL streptomycin. Serial dilutions of CHLA (200 μL) at concentrations of 100, 80, 60, 40, 20, 10, and 5 μmol/L were added to wells and incubated for another 24 or 48 h, respectively. Following the incubation, the existing medium was replaced with fresh medium containing a 10% CCK-8 solution and incubated at 37 °C for 1 h. Absorbance at 450 nm was measured using a Microplate Reader (TECAN Sunrise™) to determine the final optical density. Data were analyzed using GraphPad Prism 8.0 software (version 8.0). All experiments were performed in triplicate to ensure reliability.

Another data set deals with Caco-2 cells. The data set can be described thus: Caco-2 bidirectional permeability assay. In kind it is in vitro ADME.
Data set [8] in a line: Caco-2 bidirectional permeability assay. The format is in vitro ADME. To be noted: human, pH 7.4. (In general: Caco-2 cells form a polarised layer with tight junctions and transporters.)
Data set [9] has as its system SARS-CoV-2 WT. The format is in vivo, K18-hACE2 transgenic mice. The settings on record: for lung live viral titers vs Virus group: three days post-infection; for body weight of infected mice: 1000 FFU SARS-CoV-2 WT.
The test system of the next data set is E166V mutation of M^pro. To be noted: E166V mutant vs wild-type M^pro; cited from earlier work.

One may read the EC50 as the concentration at which the effect is half-maximal. Low values mean an effect from little substance, high ones a need for much substance. By AUC(0-t) is commonly meant exposure summed from dosing to a finite time, without extrapolation to infinity. In general, Cmax refers to the highest concentration seen after dosing. For orientation: Tmax means the time at which the peak concentration occurs. By half-life is commonly meant the time needed for the level to fall by half in the phase considered. A lower half-life goes with fast loss. The bioavailability is dose-corrected exposure relative to a reference, in per cent. For orientation: CC50 means the concentration giving 50% cytotoxicity. A lower CC50 goes with greater toxicity to the cells. For orientation: Papp A→B means how fast a substance crosses the layer from the apical side. Higher therefore signals fast passage. Usually Papp B→A stands for how fast a substance crosses the layer from the basolateral side. What is called efflux ratio is a quotient of directional permeabilities that is used to spot active efflux. `O=C(O)C[C@@H]1C(=O)O[C@H]2[C@@H]3OC(=O)c4cc(O)c(O)c(O)c4-c4c(cc(O)c(O)c4O)C(=O)OC[C@H]2O[C@@H](OC(=O)c2cc(O)c(O)c(O)c2)[C@@H]3OC(=O)c2cc(O)c(O)c3c2[C@H]1[C@H](O)C(=O)O3` [CHLA, chebulagic acid]: the EC50 in the data set with SARS-CoV-2 Omicron BA.5 came out at 1910 nM. In the data set on SARS-CoV-2 Delta, it took 1860 nM to reach a half-maximal effect (EC50). The same molecule registered an EC50 in the data set on SARS-CoV-2 Omicron BA.4 of 1890 nM. Besides, the “solubility at the effective dose” value in [1] was “superior solubility”. For the same molecule, the “histology of lung, heart, spleen, liver and kidney” value in data set [2] is recorded as “No obvious histological changes”. Further, in data set [2] (14 days), the “acute oral toxicity, overall finding” value is on record as “safe” and the “body weight vs control group” value is “no significant difference”. In addition, in data set [3] (iv, i.v. 5 mg/kg), the AUC(0-t) was 16300 ± 1980 ng·h/mL, the Cmax was 4160 ± 79.4 ng/mL, the Tmax worked out at 0.033 h and the half-life is 39.6 ± 13.5 h. In addition, in [3] (oral, i.g. 10 mg/kg vs i.v. 5 mg/kg, read-out: oral bioavailability (F)), the bioavailability came out at 7.1%. For the same molecule, in [3] (po, i.g. 10 mg/kg), the AUC(0-t) was found to be 2320 ng·h/mL, the concentration peaked (Cmax) at 241 ng/mL, the Tmax came out at 2 h and the half-life is 15.2 h. In the data set on SARS-CoV-2 WT [4], this molecule returned an EC50 of 430 nM. Moreover, it took 1110 nM to reach a half-maximal effect in data set [5] (EC50). For the same molecule, the EC50 in data set [6] is 820 nM. Besides, the CC50 at 48 h in data set [7] was greater than 100000 nM. The “membrane permeability, in words” value in the data set on Caco-2 cells (Caco-2, 5 μmol/L) is listed as “moderate membrane permeability”. Moreover, in the data set on Caco-2 cells (Caco-2, 5 µmol/L, Table S3), the “Papp (A–B)” value is listed as 1.20 10-6, cm/s and the “Papp (B–A)” value is 0.39 10-6, cm/s. Moreover, in data set [8] (Caco-2, 5 μmol/L), the Papp A→B at 2 h, 5 μmol/L is 1.2 ×10⁻⁶ cm/s; the Papp B→A at 2 h, 5 μmol/L amounted to 0.39 ×10⁻⁶ cm/s; the efflux ratio at 2 h, 5 μmol/L came to 0.33. Besides, the “lung live viral titers vs Virus group” value with SARS-CoV-2 WT [9] (150 mg/kg oral) is reported as “no significant difference”. In the data set on SARS-CoV-2 WT [9] (300 mg/kg oral), the “body weight of infected mice” value is “weight recovery” and the “lung live viral titers vs Virus group” value is “significant decrease”. Besides, the “antiviral efficacy compared with positive control PF-07321332 (300 mg/kg)” value in the data set with SARS-CoV-2 WT [9] (300 mg/kg oral, P > 0.05) is “equivalent to that of PF-07321332; also recorded: comparable to that of PF-07321332”.
Turning to `C[C@H]1O[C@@H](O[C@H]2[C@@H](O)C[C@H](O[C@H]3[C@@H](O)C[C@H](O[C@H]4CC[C@@]5(C)[C@H](CC[C@@H]6[C@@H]5C[C@@H](O)[C@]5(C)[C@@H](C7=CC(=O)OC7)CC[C@]65O)C4)O[C@@H]3C)O[C@@H]2C)C[C@H](O)[C@@H]1O` [Digoxin], the efflux ratio at 2 h, 5 μmol/L in data set [8] (Caco-2, 5 μmol/L) was 29.6. In addition, in [8] (Caco-2, 5 µmol/L, Table S3), the Papp A→B at 2 h, 5 μmol/L amounted to 0.68 ×10⁻⁶ cm/s and the Papp B→A at 2 h, 5 μmol/L stood at 20.2 ×10⁻⁶ cm/s.
As for `Nc1cc(N2CCCCC2)nc(N)[n+]1[O-]` [Minoxidil], in the data set on Caco-2 cells (Caco-2, 5 µmol/L, Table S3), the “Papp (A–B)” value is 5.94 10-6, cm/s. Further, in [8] (Caco-2, 5 μmol/L), the Papp A→B at 2 h, 5 μmol/L was 5.94 ×10⁻⁶ cm/s and the efflux ratio at 2 h, 5 μmol/L worked out at 0.96. The same molecule showed a Papp B→A at 2 h, 5 μmol/L in data set [8] (Caco-2, 5 µmol/L, Table S3) of 5.71 ×10⁻⁶ cm/s.
`CC(C)(C)[C@H](NC(=O)C(F)(F)F)C(=O)N1C[C@H]2[C@@H]([C@H]1C(=O)N[C@H](C#N)C[C@@H]1CCNC1=O)C2(C)C` [PF-07321332, reference compound]: the EC50 in the data set with SARS-CoV-2 Omicron BA.5 stood at 40 nM; in the data set on SARS-CoV-2 Delta it was 50 nM; in the data set on SARS-CoV-2 Omicron BA.4, 80 nM; with SARS-CoV-2 WT [4], 30 nM; in data set [5], 40 nM; in data set [6] it was 50 nM. In addition, the “solubility at the effective dose” value in data set [1] is given as “poor solubility”. Moreover, the “loss of inhibitory efficacy caused by the E166V mutation” value with E166V mutation of M^pro is recorded as “over 200 fold”. In addition, the “body weight of infected mice” value in the data set on SARS-CoV-2 WT [9] (300 mg/kg oral) is on record as “weight recovery”. For the same molecule, the “lung live viral titers vs Virus group” value with SARS-CoV-2 WT [9] (300 mg/kg oral) is given as “significant decrease”.
